Legend:
Assay type in all cases: cell-based, human
TNF-alpha = assay: LPS-induced TNF-alpha secretion from PBMCs, overnight pre-treatment (MSD); details: overnight 1000 nM lenalidomide, 100 nM pomalidomide, 10 nM iberdomide or 1 nM Compound 1; LPS 24 hours
Method: (§1) Fresh PBMCs isolated from healthy volunteers were seeded at a concentration of 1×10^6 cells/ml and treated with the indicated concentration of IMiD drugs/CELMoD agents or DMSO overnight before stimulation with the indicated concentration of LPS. After 24 hours, the cell culture media was collected and IL-6, TNF-alpha and IL1-beta levels in the supernatant were assessed using an MSD assay. ULOQ = Upper limit of quantification.
(§2) Fresh peripheral blood mononuclear cells (PBMCs) were isolated from the blood (buffy coat) of healthy human volunteers by Ficoll based cell separation. The isolated PBMCs were seeded at a concentration of 1×10^6 cells/ml and treated with 1000 nM lenalidomide, 100 nM pomalidomide, 10 nM iberdomide, 1 nM Compound 1 (CC-92480) or control DMSO, overnight (~17 hours). The next morning, the PBMCs were stimulated with various concentrations of LPS (Lipopolysaccharides from Escherichia coli O111:B4).
(§3) After 24 hours, the cell culture media was collected from the control and stimulated cells, spun down at 300 g for 5 minutes to remove cells and the supernatant was subjected to cytokine analysis to quantify secreted levels of IL-6, TNF-alpha (TNF-α) and IL1-beta (IL-1β) using an MSD assay (see e.g. FIGS. 8A-C).

IL-6 [1] = assay: LPS-induced IL-6 secretion from isolated macrophages (M0) (MSD); details: overnight (~17 hours) 1000 nM lenalidomide, 100 nM pomalidomide, 10 nM iberdomide or 1 nM Compound 1; then LPS
Method: Monocytes from healthy volunteers were seeded at a concentration of 3×10^5 cells/ml for 4 days with RPMI 1640 media containing M-CSF (50 ng/mL) (50% media replaced after 2 days) to obtain naive macrophages (M0). At the end of day 4, macrophages were treated with the indicated concentration of IMiD/CELMoD agents overnight (~17 hours). The next morning, the macrophages were stimulated with the indicated concentration of LPS for 8 hours, before IL-6 levels in the supernatant were assessed using an MSD assay.
Peripheral blood mononuclear cells (PBMCs) were isolated from the blood of two healthy human donors by Ficoll cell separation, and then monocytes were isolated from these PBMCs by positive selection using MACS […] magnetic microbeads. The isolated monocytes were seeded at a concentration of 3×10^5 cells/ml and incubated for 4 days with RPMI 1640 media containing M-CSF (50 ng/mL) (50% media replaced after 2 days) to obtain naive macrophages (M0). At the end of day 4, the macrophages were incubated overnight (~17 hours) with 1000 nM lenalidomide, 100 nM pomalidomide, 10 nM iberdomide or 1 nM Compound 1, or control DMSO (0.001%), before stimulation with various concentrations of LPS for IL-6 secretion.
After 6 hours, the cell culture was spun down at 300 g for 5 minutes to remove cells, and the supernatant was subjected to MSD analysis to quantify secreted IL-6.

OPM-2 cells = assay: CC-93269 mediated cytotoxicity assay with chronically stimulated T-cells, OPM-2 target cells (IncuCyte); details: anti-CD3/CD28 7 days with 100 nM pomalidomide, 10 nM iberdomide or 1 nM CC-92480; CC-93269 47 pM; E:T 1:2
Method: (§4) Cell growth kinetics of A) NCI-H929 and B) OPM-2 cells in CC-93269 (47 pM) cytotoxicity assays on the IncuCyte® S3 Live-Cell Analysis System. Healthy donor T-cells were used as effector cells with or without chronic stimulation with anti-CD3/CD28 (7 days) in the presence of DMSO or CM agents (100 nM Pomalidomide, 10 nM CC-220 or 1 nM CC-92480). T-cells and NCI-H929 cells were co-cultured at E:T ratios of 1:4 (NCI-H929) or 1:2 (OPM-2). […] In contrast, prior exposure to CM agents prevented functional TBMS cell exhaustion and CC-93269 activity was similar or better to those observed with freshly thawed T-cells. Values shown represent the mean ± standard deviation of AUC values of 2-3 replicates from the same experiment.
(§5) To evaluate the effects of Cereblon modulating (CM) agents on T-cell function after chronic stimulation (i.e. mimicking T cell exhaustion), CD3+ enriched healthy donor T-cells were stimulated with anti-CD3/CD28 in the presence of DMSO (control), 100 nM pomalidomide, 10 nM iberdomide (CC-220) or 1 nM Compound 1 (CC-92480) for 7 days. Prolonged and repetitive anti-CD3/CD28 stimulation of T-cells results in functional T-cell exhaustion in vitro.
(§6) The chronically stimulated T-cells were then used in CC-93269 mediated cytotoxicity assays with NCI-H929 or OPM-2 multiple myeloma (MM) target cells. The T-cells were washed to remove compounds, and mixed with fluorescently labelled MM cell lines (NCI-H929, OPM-2) at optimized effector-to-target (E:T) ratios (1:2 or 1:4) in the presence of fixed concentrations of CC-93269 (47 pM). Freshly thawed T-cells (i.e. non-exhausted T-cells) from the same donor were used as control effector cells. In this experimental cytotoxicity assay setup, the number of target cells was continuously monitored using the IncuCyte® S3 Live-Cell Analysis System for a minimum of 10 days. Cell culture supernatants were taken from wells from subsequent CC-93269 mediated cytotoxicity assays at 3 days after mixing with MM target cells. CD3+ T cells from 2 or 3 independent healthy donors were tested for each MM cell line.

IL1-beta = assay: LPS-induced IL1-beta secretion from PBMCs, overnight pre-treatment (MSD); details: overnight 1000 nM lenalidomide, 100 nM pomalidomide, 10 nM iberdomide or 1 nM Compound 1; LPS 24 hours
Method: as §1, §2, §3

NCI-H929 cells = assay: CC-93269 mediated cytotoxicity assay with chronically stimulated T-cells, NCI-H929 target cells (IncuCyte); details: anti-CD3/CD28 7 days with 100 nM pomalidomide, 10 nM iberdomide or 1 nM CC-92480; CC-93269 47 pM; E:T 1:4
Method: as §4, §5, §6

IL-6 [2] = assay: LPS-induced IL-6 secretion from PBMCs, overnight pre-treatment (MSD); details: overnight 1000 nM lenalidomide, 100 nM pomalidomide, 10 nM iberdomide or 1 nM Compound 1; LPS 24 hours
Method: as §1, §2, §3

GM-CSF = assay: LPS-stimulated PBMC cytokine production, multiplex cytokine analysis: GM-CSF; details: Homo sapiens, PBMC, PBMC 2×10^6 cells/ml, compound 1 hour, then 1 ng/ml LPS 18 hours
Method: (§7) Peripheral blood mononuclear cells (PBMCs) were isolated from the blood of healthy human donors by Ficoll cell separation. […] Supernatant samples were subjected to multiplex cytokine analysis (Luminex IS100 instrument) to quantify secreted levels of IL-6, IL-8, IL1-beta (IL-1β), GM-CSF, MDC, MIP-1alpha (MIP-1α), MIP-1beta (MIP-1β) and TNF-alpha (TNF-α) (see e.g. FIGS. 7A-C). IC50 (half maximal inhibitory concentration) values were calculated to measure the potency of each IMiD compound in inhibiting LPS-stimulated secretion of each cytokine (see Table 25).

IL-1β = assay: LPS-stimulated PBMC cytokine production, multiplex cytokine analysis: IL-1β; details: Homo sapiens, PBMC, PBMC 2×10^6 cells/ml, compound 1 hour, then 1 ng/ml LPS 18 hours
Method: as §7

IL-6 [3] = assay: LPS-stimulated PBMC cytokine production, multiplex cytokine analysis: IL-6; details: Homo sapiens, PBMC, PBMC 2×10^6 cells/ml, compound 1 hour, then 1 ng/ml LPS 18 hours
Method: as §7

MDC = assay: LPS-stimulated PBMC cytokine production, multiplex cytokine analysis: MDC; details: Homo sapiens, PBMC, PBMC 2×10^6 cells/ml, compound 1 hour, then 1 ng/ml LPS 18 hours
Method: as §7

| IC50 (GM-CSF) [µM] | IC50 (IL-1β) [µM] | IC50 (IL-6 [3]) [µM] | IC50 (MDC) [µM] | SMILES | LPS-induced secretion of TNF-α from PBMCs (TNF-alpha) | LPS-induced IL-6 secretion from macrophages (IL-6 [1]) | cytolytic function of chronically stimulated T-cells in CC-93269-directed killing of OPM-2 cells (OPM-2 cells) | LPS-induced secretion of IL-1β from PBMCs (IL1-beta) | cytolytic function of chronically stimulated T-cells in CC-93269-directed killing of NCI-H929 cells (NCI-H929 cells) | LPS-induced secretion of IL-6 from PBMCs (IL-6 [2]) |
| --- | --- | --- | --- | --- | --- | --- | --- | --- | --- | --- |
|  |  |  |  | N#Cc1ccc(N2CCN(Cc3ccc(COc4cccc5c4CN(C4CCC(=O)NC4=O)C5=O)cc3)CC2)c(F)c1 (stereo not drawn) [Compound 1, 4-(4-(4-(((2-(2,6-dioxopiperidin-3-yl)-1-oxoisoindolin-4-yl)oxy)methyl)benzyl)piperazin-l-yl)-3-fluorobenzonitrile] | reduces | diminished | beneficial effects on the cytolytic function of T-cells | reduces | beneficial effects on the cytolytic function of T-cells | reduces |
| 0.0022 | 0.00046 | 0.0038 | 0.0021 | O=C1CC[C@H](N2Cc3c(OCc4ccc(CN5CCOCC5)cc4)cccc3C2=O)C(=O)N1 [Iberdomide, (S)-3-(4-((4-(morpholinomethyl)benzyl)oxy)-1-oxoisoindolin-2-yl)piperidine-2,6-dione] | reduces | diminished | beneficial effects on the cytolytic function of T-cells | reduces | beneficial effects on the cytolytic function of T-cells | reduces |
| > 10 | 0.39 | 1.2 | 0.19 | Nc1cccc2c1CN(C1CCC(=O)NC1=O)C2=O (stereo not shown) [Lenalidomide, 3-(4-amino-1-oxo-2,3-dihydro-1H-isoindol-2-yl) piperidine-2,6-dione] | reduces | diminished |  | reduces |  | reduces |
| 1.5 | 0.047 | 0.059 | 0.031 | Nc1cccc2c1C(=O)N(C1CCC(=O)NC1=O)C2=O (stereo not shown) [Pomalidomide, 4-amino-2-(2,6-dioxopiperidine-3-yl)isoindoline-1,3-dione] | reduces | diminished | beneficial effects on the cytolytic function of T-cells | reduces | beneficial effects on the cytolytic function of T-cells | reduces |

From patent US20230172923A1, “METHODS OF TREATING CYTOKINE-RELATED ADVERSE EVENTS” (BRISTOL-MYERS SQUIBB COMPANY, priority 2020, published 2023)
